These results are taken from PMC12040169 (PLOS Biology, 2025).

This data set in a line: in vitro. The settings on record: human, hela cells, % viability.

Take `O=c1[nH]c(=O)c2cc(S(=O)(=O)Nc3ccccc3-c3ccccc3)ccc2[nH]1` [CBK286374]: the viability at 28.5 h, 10 µM is 102%.

On to `COc1ccccc1CCC(=O)Nc1cnc(-c2ccc(F)cc2)c(-c2ccco2)n1` [CBK037002], for which the viability at 28.5 h, 10 µM stood at 95.1%.

Regarding `O=C(NC1Cc2ccccc2C1)c1nc2ccccc2[nH]1` [CBK200361], the viability at 28.5 h, 10 µM worked out at 102%.

Regarding `COc1ncc(-c2cncc(N3CCCN(C)CC3)n2)c(OC)n1` [CBK065286], the viability at 28.5 h, 10 µM is 104%.

In the case of `CN(C)c1cccc(OCCn2ccnc(N3CCNCC3)c2=O)c1` [CBK013866F], the viability at 28.5 h, 10 µM was found to be 114%.

As to `COc1ccccc1-c1cccc(C2CCCN(C(=O)Cc3c[nH]c4ccccc34)C2)n1` (stereo not shown) [CBK286143], the viability at 28.5 h, 10 µM is 100%.

Take `Cc1nn(Cc2ccccc2)c(C)c1CNC(=O)c1nc(Cl)ccc1Cl` [CBK297928]: the viability at 28.5 h, 10 µM amounted to 93.8%.

On to `O=C(c1cccnc1N1CCCCC1)N1CCCCC1` [CBK025882], for which the viability at 28.5 h, 10 µM turned out to be 109%.

As to `O=C(OCc1ccccc1)N1CCC(C2OCc3cc(-c4cccc5ncccc45)ccc3O2)CC1` (stereo not shown) [CBK144644], the viability at 28.5 h, 10 µM worked out at 94.8%.

Take `OCCNCCNCc1ccc(-c2ccccc2)cc1` [CBK278269C]: the viability at 28.5 h, 10 µM is 115%.

In the case of `CC(C)(C)c1cc(C[C@H]2CNCC[C@H]2CC(=O)Nc2nccs2)no1` [CBK288798], the viability at 28.5 h, 10 µM turned out to be 81%.

As to `Cc1ccsc1C(=O)N1CCC(c2n[nH]c3ncccc23)CC1` [CBK284910], the viability at 28.5 h, 10 µM came to 92.2%.

Regarding `C=CCN1C(=O)C2(CC(=O)N(C)C2=O)c2ccccc21` (stereo not shown) [CBK075137], the viability at 28.5 h, 10 µM stood at 93.6%.

For `O=C(O)c1cccc(NS(=O)(=O)c2cccc([N+](=O)[O-])c2)c1` [CBK155711], the viability at 28.5 h, 10 µM was determined as 99.2%.

As for `Cc1cc(C)n(C(C)CC(=O)N2CCCCC2CCN2CCCC2)n1` (stereo not shown) [CBK282078], the viability at 28.5 h, 10 µM was found to be 106%.

In the case of `COc1cc(C(=O)Nc2nnc(C3=COCCO3)o2)cc(OC)c1OC` [CBK287410], the viability at 28.5 h, 10 µM amounted to 97.6%.

As to `OCCN(CCO)c1nccnc1-c1ccccc1F` [CBK036610], the viability at 28.5 h, 10 µM was determined as 106%.

As to `O=C(CN1CCC(c2ccccc2F)CC1)NCc1ccco1` [CBK283550], the viability at 28.5 h, 10 µM came out at 88.3%.

Take `CCOc1ccc(S(=O)(=O)N(CC)CC(=O)O)cc1C` [CBK269770]: the viability at 28.5 h, 10 µM worked out at 91.5%.

`c1cc(OCc2cccs2)cc(N2CCNCC2)c1` [CBK022557F]: the viability at 28.5 h, 10 µM stood at 89.3%.

Turning to `O=C1NCCNC(=O)C2(C/C=C/COc3ccccc31)CCN(Cc1ccccc1F)CC2` [CBK292024], the viability at 28.5 h, 10 µM amounted to 101%.

In the case of `Cc1cnc2c(c1)cc(C1CCOCC1)n2CC(=O)NC1CCCC1` [CBK284755], the viability at 28.5 h, 10 µM worked out at 103%.

With `Cc1oc2c(c1C(=O)NCCn1ccnc1C)CCCC2` [CBK281898], the viability at 28.5 h, 10 µM was 97.1%.

For `CC(NC(=O)c1cc(C(F)(F)F)[nH]n1)c1ccccn1` (stereo not shown) [CBK281712], the viability at 28.5 h, 10 µM came to 84.8%.

As to `CN(Cc1ncc[nH]1)C(=O)c1cn(Cc2cccc(C(F)(F)F)c2)nn1` [CBK306768], the viability at 28.5 h, 10 µM turned out to be 84.4%.

For the compound `Cc1ccc(OCC(=O)NC(=S)Nc2cc(C(=O)O)ccc2C)cc1C` [CBK264955], the viability at 28.5 h, 10 µM is 92.8%.

Regarding `CC(C)CNc1nccnc1-c1ccc2c(c1)OCO2` [CBK088730], the viability at 28.5 h, 10 µM worked out at 98.4%.

In the case of `Clc1cc(Cl)cc(-c2cn3ccnc3c(NCc3ccncc3)n2)c1` [CBK066664], the viability at 28.5 h, 10 µM stood at 94.3%.

Consider `CC1(c2[nH]nc(N)c2Cc2c(Cl)cccc2Cl)CC1` [CBK115483T], for which the viability at 28.5 h, 10 µM is 92.3%.

On to `O=C1c2cccc3cccc(c23)C(=O)N1CCN1CCN(CC(O)COc2ccc3c(c2)OCO3)CC1` (stereo not shown) [CBK074849C], for which the viability at 28.5 h, 10 µM stood at 87.4%.

For `COc1cc2c(cc1OC)CN(Cc1nc3ccccc3[nH]1)CC2` [CBK126390], the viability at 28.5 h, 10 µM turned out to be 91%.

On to `Cc1ccn2c(-c3csc(Nc4ccc(C(=O)O)cc4)n3)c(C)nc2c1` [CBK263283B], for which the viability at 28.5 h, 10 µM worked out at 97.5%.

As for `Fc1ccc(OCCCCCN2CCC3(CC2)OCCc2c3[nH]c3ccccc23)cc1` [CBK113516T], the viability at 28.5 h, 10 µM is 2.48%.

As to `CN1CCN(CC(O)COCc2ccc3c(c2)OCO3)CC1` (stereo not shown) [CBK278260C], the viability at 28.5 h, 10 µM came to 81.4%.

For the compound `Cc1n[nH]cc1CN(C)c1cc([C@H]2C[C@@H](N)C2)nc(C2CC2)n1` [CBK307544], the viability at 28.5 h, 10 µM stood at 110%.

Turning to `NCC(NC(=O)c1cnc(-c2ccncc2)s1)C1CCCCC1` (stereo not shown) [CBK306502C], the viability at 28.5 h, 10 µM came out at 104%.

On to `COc1nc2ccn(CC(O)CO)c(=O)c2cc1C#N` (stereo not shown) [CBK307251], for which the viability at 28.5 h, 10 µM was found to be 97.1%.

On to `O=S(=O)(NCc1nc2ccccc2[nH]1)c1ccccc1` [CBK269460], for which the viability at 28.5 h, 10 µM came to 94.6%.

On to `COc1cc(CNc2nnn[nH]2)cc(Br)c1OCc1ccc(Cl)cc1` [CBK300496], for which the viability at 28.5 h, 10 µM amounted to 87.2%.

For the compound `O=C(Nc1ccccc1N1CCNCC1)c1ccoc1` [CBK029442T], the viability at 28.5 h, 10 µM was found to be 96.2%.

For `Cn1cnc([N+](=O)[O-])c1Oc1ccccc1OCc1ccccc1` [CBK002747], the viability at 28.5 h, 10 µM is 91.7%.

For `CN1CCC(N(C)C(=O)NCc2cccc3ccccc23)C1` (stereo not shown) [CBK155999], the viability at 28.5 h, 10 µM is 89.2%.

In the case of `COc1ccccc1-c1nccnc1NCc1ccccn1` [CBK036894], the viability at 28.5 h, 10 µM is 108%.

Turning to `O=C(COc1cccc2ccccc12)Nc1ccc(O)cc1` [CBK266002], the viability at 28.5 h, 10 µM was determined as 88.6%.

For the compound `O=C(O)c1ccc(S(=O)(=O)c2ccc3c(c2)C(=O)N(c2ccccc2-c2ccccc2)C3=O)cc1` [CBK262760], the viability at 28.5 h, 10 µM was 101%.

As for `Brc1ccc(OCc2ccccc2)c(CNCc2ccccn2)c1` [CBK268340C], the viability at 28.5 h, 10 µM amounted to 99.9%.

On to `Cc1cccc(-c2ncc(NC(=O)COc3ccc([N+](=O)[O-])cc3)nc2-c2cccnc2)c1` [CBK037096], for which the viability at 28.5 h, 10 µM came out at 97.8%.

With `Cn1c(SCC(=O)Nc2c(F)cc(F)cc2Br)nnc1-c1cccnc1` [CBK267583], the viability at 28.5 h, 10 µM turned out to be 90.8%.

Take `c1cncc(CNc2nccnc2-c2ccsc2)c1` [CBK089314]: the viability at 28.5 h, 10 µM turned out to be 113%.

Take `CC(C)N1CCC(CNC(=O)c2cc3ccccc3c(=O)s2)CC1` [CBK282711]: the viability at 28.5 h, 10 µM stood at 88.6%.

As to `CCn1cc(CN(CCCN(C)C)Cc2ccc(C)o2)c(C)n1` [CBK283201], the viability at 28.5 h, 10 µM was 95.5%.

For the compound `CC(C)(C)OC(=O)N1CCN(CCOc2ccc(NC(=O)OCc3ccccc3)cc2F)CC1` [CBK016854], the viability at 28.5 h, 10 µM is 108%.

In the case of `COc1ccc(Nc2n[nH]c3nc(C)cc(=O)n23)cc1` [CBK288117], the viability at 28.5 h, 10 µM turned out to be 91.1%.

On to `O=C(COc1ccccc1Cl)N/N=C/c1ccc(-c2ccccc2[N+](=O)[O-])o1` [CBK262782], for which the viability at 28.5 h, 10 µM was 112%.

With `CN1CCC(=NNC(=O)c2ccc(N(Cc3ccccc3)S(C)(=O)=O)cc2)CC1` [CBK262742], the viability at 28.5 h, 10 µM came to 82.4%.

For `NC(=O)c1cnn(-c2cc(Oc3ccccc3)ncn2)c1N` [CBK098664], the viability at 28.5 h, 10 µM amounted to 105%.

`O=C(O)C/N=C1/CCCc2ccccc2N1` [CBK261809]: the viability at 28.5 h, 10 µM stood at 90.7%.

For the compound `CC(=O)Nc1ccc(S(=O)(=O)Nc2ccc(CC#N)cc2)cc1Cl` [CBK044058], the viability at 28.5 h, 10 µM amounted to 87.8%.
